Results from patent US12486267B2, “Imidazo[1,2-A]pyridine and [1,2,4]triazolo[1,5-A]pyridine derivatives as TLR9 inhibitors for the treatment of fibrosis” (BRISTOL-MYERS SQUIBB COMPANY, priority 2020, dated 2025).

Legend:
Type in all cases: cell-based
human TLR9 = biological target: T1, human TLR9 (Homo sapiens, UniProt Q9NR96); experiment: TLR9 inhibition reporter assay (HEK-Blue cells, SEAP reporter); conditions: HEK-Blue cells overexpressing human TLR9; stimulated with ODN2006 5 nM; 22 hour incubation; SEAP readout
T1 sequence (Q9NR96 26-1032): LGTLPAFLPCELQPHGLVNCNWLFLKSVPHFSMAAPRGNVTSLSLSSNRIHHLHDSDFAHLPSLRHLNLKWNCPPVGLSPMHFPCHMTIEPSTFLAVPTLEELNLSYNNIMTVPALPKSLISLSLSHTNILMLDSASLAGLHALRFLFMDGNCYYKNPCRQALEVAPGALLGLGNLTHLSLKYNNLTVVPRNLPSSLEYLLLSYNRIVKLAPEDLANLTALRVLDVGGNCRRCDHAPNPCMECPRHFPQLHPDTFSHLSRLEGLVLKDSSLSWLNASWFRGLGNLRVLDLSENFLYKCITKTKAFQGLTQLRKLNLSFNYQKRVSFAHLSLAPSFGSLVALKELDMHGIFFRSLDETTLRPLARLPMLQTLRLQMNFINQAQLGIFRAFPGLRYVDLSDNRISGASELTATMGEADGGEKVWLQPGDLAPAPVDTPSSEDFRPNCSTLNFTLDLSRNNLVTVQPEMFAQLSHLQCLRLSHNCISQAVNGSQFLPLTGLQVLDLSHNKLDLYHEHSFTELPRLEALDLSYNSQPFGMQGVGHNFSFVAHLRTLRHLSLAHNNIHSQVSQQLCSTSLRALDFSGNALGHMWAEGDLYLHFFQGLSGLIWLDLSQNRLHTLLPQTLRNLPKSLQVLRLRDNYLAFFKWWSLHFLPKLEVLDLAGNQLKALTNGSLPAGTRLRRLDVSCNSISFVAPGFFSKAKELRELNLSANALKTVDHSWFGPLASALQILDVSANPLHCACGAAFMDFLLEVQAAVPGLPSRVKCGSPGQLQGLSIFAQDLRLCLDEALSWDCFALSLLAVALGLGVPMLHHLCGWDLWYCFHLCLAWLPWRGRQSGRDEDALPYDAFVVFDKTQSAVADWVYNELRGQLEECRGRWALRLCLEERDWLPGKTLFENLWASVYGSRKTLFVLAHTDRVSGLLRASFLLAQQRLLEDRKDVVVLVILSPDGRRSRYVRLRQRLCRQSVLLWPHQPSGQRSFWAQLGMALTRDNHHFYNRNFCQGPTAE
How it was run: (§1)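 HEK-Blue cells with NF-κB/AP-1-driven SEAP pre-treated 30 min with compound (0.05 nM–50 μM), then stimulated with gardiquimod 7.5 μM (TLR7), R848 15.9 μM (TLR8) or ODN2006 5 nM (TLR9). SEAP detected after 22 h at 37 °C; percent inhibition relative to agonist-plus-DMSO and known-inhibitor wells.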

human TLR7 = biological target: T2, human TLR7 (Homo sapiens, UniProt Q9NYK1); experiment: TLR7 inhibition reporter assay (HEK-Blue cells, SEAP reporter); conditions: HEK-Blue cells overexpressing human TLR7; stimulated with gardiquimod 7.5 μM; 22 hour incubation; SEAP readout
T2 sequence (Q9NYK1 27-1049): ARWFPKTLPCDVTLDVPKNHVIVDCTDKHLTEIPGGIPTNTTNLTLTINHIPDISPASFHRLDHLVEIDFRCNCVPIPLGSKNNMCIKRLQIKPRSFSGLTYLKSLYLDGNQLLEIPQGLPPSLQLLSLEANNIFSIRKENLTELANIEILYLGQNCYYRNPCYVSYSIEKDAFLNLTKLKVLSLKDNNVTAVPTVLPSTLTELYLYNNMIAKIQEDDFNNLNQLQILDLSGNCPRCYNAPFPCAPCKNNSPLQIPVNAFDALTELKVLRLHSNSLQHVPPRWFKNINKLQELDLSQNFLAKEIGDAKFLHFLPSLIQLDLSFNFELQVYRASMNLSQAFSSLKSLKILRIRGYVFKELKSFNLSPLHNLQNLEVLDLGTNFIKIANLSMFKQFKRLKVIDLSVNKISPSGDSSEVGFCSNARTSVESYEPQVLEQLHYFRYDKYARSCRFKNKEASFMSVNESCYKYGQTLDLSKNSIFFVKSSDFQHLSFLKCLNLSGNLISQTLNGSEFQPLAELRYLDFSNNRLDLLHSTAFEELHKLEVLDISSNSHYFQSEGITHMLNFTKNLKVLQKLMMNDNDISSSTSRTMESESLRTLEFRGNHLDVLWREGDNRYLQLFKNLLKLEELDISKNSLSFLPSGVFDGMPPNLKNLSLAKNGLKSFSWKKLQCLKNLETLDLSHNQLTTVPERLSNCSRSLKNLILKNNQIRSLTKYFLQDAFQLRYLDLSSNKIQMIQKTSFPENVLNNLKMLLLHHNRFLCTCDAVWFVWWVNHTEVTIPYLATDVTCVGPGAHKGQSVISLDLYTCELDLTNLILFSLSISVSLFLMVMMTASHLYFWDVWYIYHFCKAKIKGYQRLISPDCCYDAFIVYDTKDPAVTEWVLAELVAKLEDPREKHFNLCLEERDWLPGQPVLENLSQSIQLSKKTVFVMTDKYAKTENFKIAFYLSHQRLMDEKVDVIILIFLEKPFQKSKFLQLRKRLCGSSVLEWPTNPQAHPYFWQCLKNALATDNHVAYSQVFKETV
How it was run: as §1

human TLR8 = biological target: T3, human TLR8 (Homo sapiens, UniProt Q9NR97); experiment: TLR8 inhibition reporter assay (HEK-Blue cells, SEAP reporter); conditions: HEK-Blue cells overexpressing human TLR8; stimulated with R848 15.9 μM; 22 hour incubation; SEAP readout
T3 sequence (Q9NR97 27-1041): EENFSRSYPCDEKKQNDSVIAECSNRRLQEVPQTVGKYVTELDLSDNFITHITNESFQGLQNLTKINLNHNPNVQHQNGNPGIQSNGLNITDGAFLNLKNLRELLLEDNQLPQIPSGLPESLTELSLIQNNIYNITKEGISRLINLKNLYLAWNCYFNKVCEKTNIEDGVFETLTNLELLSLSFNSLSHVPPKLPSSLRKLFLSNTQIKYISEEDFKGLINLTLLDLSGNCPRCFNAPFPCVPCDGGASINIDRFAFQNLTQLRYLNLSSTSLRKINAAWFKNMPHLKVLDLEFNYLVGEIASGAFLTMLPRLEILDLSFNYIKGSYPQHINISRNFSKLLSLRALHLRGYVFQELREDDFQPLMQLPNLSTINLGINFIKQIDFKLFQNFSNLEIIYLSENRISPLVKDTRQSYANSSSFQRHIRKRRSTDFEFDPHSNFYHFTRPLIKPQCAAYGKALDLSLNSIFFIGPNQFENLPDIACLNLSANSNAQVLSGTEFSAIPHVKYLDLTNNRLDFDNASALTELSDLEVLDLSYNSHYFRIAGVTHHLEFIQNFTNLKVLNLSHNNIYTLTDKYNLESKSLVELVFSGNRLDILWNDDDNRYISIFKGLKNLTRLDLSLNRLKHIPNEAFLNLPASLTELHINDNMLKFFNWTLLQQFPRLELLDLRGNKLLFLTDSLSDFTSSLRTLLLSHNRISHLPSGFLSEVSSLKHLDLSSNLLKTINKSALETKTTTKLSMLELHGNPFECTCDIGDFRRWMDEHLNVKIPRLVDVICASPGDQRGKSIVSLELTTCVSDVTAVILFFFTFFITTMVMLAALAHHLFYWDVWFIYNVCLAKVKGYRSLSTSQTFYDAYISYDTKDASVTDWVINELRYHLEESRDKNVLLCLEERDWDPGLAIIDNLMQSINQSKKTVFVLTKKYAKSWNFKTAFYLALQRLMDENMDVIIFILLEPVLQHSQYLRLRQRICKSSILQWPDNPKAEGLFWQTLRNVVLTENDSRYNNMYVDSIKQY
How it was run: as §1

Row | IC50 (human TLR9) [nM] | IC50 (human TLR7) [nM] | IC50 (human TLR8) [nM] | SMILES
1 | 7.8 | 7400 | 46700 | CC(C)CN1CCCC(N2CCC(c3cc(F)c4nc(-c5ccc(S(C)(=O)=O)cc5)cn4c3)CC2)CC1 (single isomer, unassigned) [Example 126, 8-fluoro-6-(1-(1-isobutylazepan-4-yl)piperidin-4-yl)-2-(4-(methylsulfonyl)phenyl) imidazo[1,2-a]pyridine]
2 | 232 | 2100 | 15000 | COc1ccc(-c2cn3cc(-c4ccc(N5CCN(C(C)C)CC5)cc4)cc(C)c3n2)cc1OC [Example 96, 2-(3,4-dimethoxyphenyl)-6-(4-(4-isopropylpiperazin-1-yl)phenyl)-8-methylimidazo[1,2-a]pyridine]
3 | 112 | 2000 | > 50000 | COc1ccc(-c2cn3c(n2)CCC(C2CCN(C4CC5(C4)CN(C4CCC4)C5)CC2)C3)cc1OC (racemic) [Example 48, 6-(1-(2-cyclobutyl-2-azaspiro[3.3]heptan-6-yl)piperidin-4-yl)-2-(3,4-dimethoxyphenyl)-5,6,7,8-tetrahydroimidazo[1,2-a]pyridine]
4 | 77 | 5600 | > 50000 | COc1ccc(-c2cn3cc(C4CCN(C5CCN(C(C)C)CC5)CC4)ccc3n2)cc1OC [Example 11, 2-(3,4-dimethoxyphenyl)-6-(1′-isopropyl-[1,4′-bipiperidin]-4-yl)imidazo[1,2-a]pyridine]
5 | 68 | > 50000 | > 50000 | COc1ccc(-c2cn3c(n2)CCC(C2CCN(C4CC5(C4)CN(CC4CC4)C5)CC2)C3)cc1OC (racemic) [Example 51, 6-(1-(2-(cyclopropylmethyl)-2-azaspiro[3.3]heptan-6-yl)piperidin-4-yl)-2-(3,4-dimethoxyphenyl)-5,6,7,8-tetrahydroimidazo[1,2-a]pyridine]
6 | 30 | 10600 | > 50000 | CS(=O)(=O)c1ccc(-c2cn3cc(C4CCN(C5CC6CCC(C5)N6C5COC5)CC4)cc(F)c3n2)cc1 (single isomer, unassigned) [Example 119, 8-fluoro-2-(4-(methylsulfonyl)phenyl)-6-(1-(8-(oxetan-3-yl)-8-azabicyclo[3.2.1]octan-3-yl)piperidin-4-yl)imidazo[1,2-a]pyridine]
7 | 14 | 2000 | > 50000 | COc1ccc(-c2cn3cc(C4CCN(C5CC6(C5)CN(CC5CC5)C6)CC4)cc(C)c3n2)cc1OC [Example 16, 6-(1-(2-(cyclopropylmethyl)-2-azaspiro[3.3]heptan-6-yl)piperidin-4-yl)-2-(3,4-dimethoxyphenyl)-8-methylimidazo[1,2-a]pyridine]
8 | 670 | 4800 | > 50000 | Cc1cc(-c2ccc(N3CCN(C(C)C)CC3)cc2)cn2cc(-c3ccc(S(C)(=O)=O)cc3)nc12 [Example 65, 6-(4-(4-isopropylpiperazin-1-yl)phenyl)-8-methyl-2-(4-(methylsulfonyl)phenyl) imidazo[1,2-a]pyridine]
9 | 624 | > 50000 | > 50000 | Cc1cc(-c2ccc(N3CCN(CC(C)C)CC3)cc2)cn2cc(-c3ccc(S(C)(=O)=O)cc3)nc12 [Example 99, 6-(4-(4-isobutylpiperazin-1-yl)phenyl)-8-methyl-2-(4-(methylsulfonyl)phenyl) imidazo[1,2-a]pyridine]
10 | 451 | 5100 | > 50000 | Cc1cc(-c2ccc(N3CCN(C4CCOCC4)CC3)cc2)cn2cc(-c3ccc(S(C)(=O)=O)cc3)nc12 [Example 104, 8-methyl-2-(4-(methylsulfonyl)phenyl)-6-(4-(4-(tetrahydro-2H-pyran-4-yl)piperazin-1-yl)phenyl)imidazo[1,2-a]pyridine]
11 | 58 | 2400 | > 50000 | COc1ccc(-c2cn3cc(C4CCN(C5CC6CCC(C5)N6CC(C)C)CC4)cc(C)c3n2)cc1OC (single isomer, unassigned) [Example 19, 2-(3,4-dimethoxyphenyl)-6-(1-(8-isobutyl-8-azabicyclo[3.2.1]octan-3-yl)piperidin-4-yl)-8-methylimidazo[1,2-a]pyridine]
12 | 57 | 7800 | > 50000 | COc1ccc(-c2cn3c(n2)CCC(C2CCN(C4CCN(C(C)C)CC4)CC2)C3)cc1OC (single isomer, unassigned) [Example 36, 2-(3,4-dimethoxyphenyl)-6-(1′-isopropyl-[1,4′-bipiperidin]-4-yl)-5,6,7,8-tetrahydroimidazo[1,2-a]pyridine]
13 | 252 | 16000 | > 50000 | COc1ccc(-c2cn3cc(C4CCN(C5CCN(CC(C)C)CC5)CC4)cc(C)c3n2)cc1F [Example 6, 2-(3-fluoro-4-methoxyphenyl)-6-(1′-isobutyl-[1,4′-bipiperidin]-4-yl)-8-methylimidazo[1,2-a]pyridine]
